Source: patent publication US20220226382A1, “Nutritional Composition” (MORINAGA MILK INDUSTRY CO., LTD., priority 2019, published 2022)

Tested on: simian rotavirus SA11 strain
Assay: Plaque assay: antiviral action against simian rotavirus in MA104 cells (infection-suppressing ratio)
Type: cell-based
Details: human milk oligosaccharide alone, n=3
Method: The simian rotavirus SA11 strain (Nihon Bioresearch Inc.) was inoculated to the MA104 cells (Sigma-Aldrich) of African green monkey kidney maintained in a minimum essential medium (Sigma-Aldrich, henceforth referred to simply as “medium”). The simian rotavirus SA11 strain, for example, can be obtained from American Type Culture Collection (ATCC) as ATCC VR-1565. To the medium, lactoferrin (LF) and/or the human milk oligosaccharide(s) shown below were added beforehand alone or in combination at the following concentrations, respectively (n=3).
LF (produced by Morinaga Milk Industry Co., Ltd.): 0, 0.1 or 1.0 mg/mL
2′-Fucosyllactose (2′-FL, Funakoshi Co., Ltd.): 0, 0.1, 0.5, or 2.5 mg/mL
3-Fucosyllactose (3-FL, Funakoshi Co., Ltd.): 0, 0.1, or 0.5 mg/mL
3′-Sialyllactose (3′-SL, Funakoshi Co., Ltd.): 0, 0.1, or 0.5 mg/mL
6′-Sialyllactose (6′-SL, Funakoshi Co., Ltd.): 0, 0.1, or 0.5 mg/mL
Human milk oligosaccharides (mixture) (HMO mix, mixture of 2′-FL (2.5 mg/mL), 3-FL (0.5 mg/mL), 3′-SL (0.25 mg/mL) and 6′-SL (0.5 mg/mL))
The amount of 1.0 mg/mL corresponds to 0.1 mass % in mass percentage.
Degree of infection was evaluated based on the number of “plaques” formed when the cells were infected with the virus. Specifically, the antiviral effects of lactoferrin and human milk oligosaccharides were evaluated based on “plaque-suppressing ratio (%)”, i.e., the ratio of “plaque counts observed with lactoferrin and/or human milk oligosaccharide(s) supplementation” to “plaque counts observed without these supplementation”. Plaque-suppressing ratio was then regarded as “infection-suppressing ratio (%)”.

| Molecule | infection-suppressing ratio (0.1 mg/mL) [%] | infection-suppressing ratio (0.5 mg/mL) [%] |
| --- | --- | --- |
| 2′-Fucosyllactose [2′-FL] | 1.2 | – |
| 3-Fucosyllactose [3-FL] | 6.6 | 21 |
| CC(=O)N[C@H]1[C@H]([C@H](O)[C@H](O)CO)O[C@@](O[C@H]2[C@@H](O)[C@@H](CO)O[C@@H](O[C@H]3[C@H](O)[C@@H](O)C(O)O[C@@H]3CO)[C@@H]2O)(C(=O)O)C[C@@H]1O (stereo partly drawn) [3′-SL, 3′-Sialyllactose] | – | 33 |
| CC(=O)N[C@H]1[C@H]([C@H](O)[C@H](O)CO)O[C@@](OC[C@H]2O[C@@H](O[C@H]3[C@H](O)[C@@H](O)[C@H](O)O[C@@H]3CO)[C@H](O)[C@@H](O)[C@H]2O)(C(=O)O)C[C@@H]1O [6′-SL, 6′-Sialyllactose] | 4.5 | 23 |
